The results in this text go back to patent US6548521B1, “Inhibitors of metazoan parasite proteases” (The Regents of the University of California, priority 1992, dated 2003).

The IC50 is the midpoint of a concentration-inhibition curve.

The first assay has as its system Plasmodium falciparum clone from CDC/Indochina III (W-2). As to the kind of experiment: WRAIR in vitro antimalarial serial dilution assay ([3H]-hypoxanthine incorporation). Format: cell-based.
Details: not given
The source says: The Walter Reed Army Institute of Research (WRAIR) in vitro screens for intrinsic antimalarial activity are based on modifications of procedures described in the literature [Desjardins, R. E. et al. (1979) J.D. Antimicrobial Agents and Chemotherapy, 16(6):710-8]; Chulay et al. (1983) [Journal of Infectious Diseases 148(1):148-55]; Milhous, W. K. et al. (1985) [Antimicrobial Agents and Chemotherapy 27(4):525-30]. The system is directed to the assessment of the intrinsic activity against the erythrocytic asexual life cycle (blood schizontocides)]. A minimum of 10 mg of sample is generally submitted for initial testing. Two Plasmodium falciparum clones from CDC/Indochina III (W-2) and CDC/Sierra Leone I (D-6) [Oduola, A. M. et al. (1988) [Experimental Parasitology 67(2):354-60] are used for all assays. W-2 is resistant to chloroquine, quinine and pyrimethamine and susceptible to mefloquine. D-6 is resistant to mefloquine and susceptible to chloroquine, quinine and pyrimethamine.
The clones are maintained in continuous log-phase growth in RPMI-1640 medium supplemented with 6% washed human A+ erythrocytes, 25 mM Hepes, […] NaHCO3 and 10% heat inactivated A+ human plasma or albuMAX™ (lipid-rich bovine serum albumin, GIBCO, Grand Island, N.Y.). All cultures and assays are conducted at 37° C. under an atmosphere of 5% CO2 and 5% O2, with a balance of N2.
The preliminary screen uses D-6 diluted to a 0.2% parasitemia in a 1% hematocrit in folic acid free and p-aminobenzoic acid free RPMI-1640 and albuMAX™ (FF-CM). […] The compound is further diluted to a stock solution to 10 ml with FF-CM. This stock solution is kept at −70° C. until used. The clone is preexposed, in duplicate, at three concentrations (50,000 ng/ml, 5,000 ng/ml and 50 ng/ml) of the test compound for 48 hr in a 96-well microliter plate (MTP) using a Biomek® 1000 automated laboratory workstation (Beckman Instruments, Fullerton, Calif.). Each MTP contains chloroquine-containing controls to assess the relative activity of the unknown compound and to monitor the response of D-6.
After the preincubation, [^3H]-hypoxanthine is added to each well of the MTP to determine if the parasites can still replicate or repair DNA. After 66 hr of total incubation time, the MTP are frozen to lyse the erythrocytes and parasites. The parasite DNA is recovered by harvesting the lysate onto glass-fiber filters using a Mark II cell-harvester (Tomtec, Orange, Conn.). The radioactivity is counted on a 1205 Betaplate™ liquid scintillation counter (Wallac, Turku, Finland).
The serial dilution assay is conducted using the same assay conditions and stock solution of the compound used for the preliminary screen. Both the D-6 and the W-2 clones are used. The compound is diluted two-fold over 11 different concentration ranges with a starting concentration that is based on the preliminary screen. The IC50 is determined by a non-linear logistic dose response analysis (TableCurve™, Jandel Scientific, Corte Madera, Calif.). […] For each assay, the IC50 for each clone is determined against the known antimalarials chloroquine, mefloquine, artemisinin, quinine and pyrimethamine. These control values establish the unknown compound's relative parasite susceptibility profile compared to known antimalarials. IC50s can be similarly determined for drug-resistant isolates/clones from a wide variety of geographic locations.
For the molecule `O=C(/C=C/c1ccccc1O)c1ccc(O)cc1O` [Compound 21], the “antimalarial activity (in words)” value is “activity similar to that of hydrazide derivative IV44A”.
`COc1ccc(C(=O)/C=C/c2ccc([N+](=O)[O-])cc2)cc1OC` [Compound 24]: the “antimalarial activity (in words)” value is on record as “poor activity”.
For `O=C(C=Cc1ccccc1)n1ccnc1` [Compound 48, cinnamoylimidazole, reference compound], the “antimalarial activity (in words)” value is “substantially no activity”.

Still in this assay, the particulars now being: Plasmodium falciparum, Table I, formula III; W2 clone (CDC/Indochina III); * run: chloroquine 0.23 μM; † run: chloroquine 0.2-0.4 μM.
`CCN(CC)CCCC(C)Nc1ccnc2cc(Cl)ccc12` (stereo not drawn) [Chloroquine, chloroquine, reference compound] gave an IC50 of 0.23 µM.

Staying with this assay, now noted: Plasmodium falciparum, Table II, formula IV; * run: chloroquine 0.2-0.4 μM.
Molecule `CCN(CC)CCCC(C)Nc1ccnc2cc(Cl)ccc12` (stereo not drawn) [Chloroquine, chloroquine, reference compound] registered an IC50 of 0.2 to 0.4 µM.

Staying with this assay, now noted: Plasmodium falciparum, Table III, formula V.
Molecule `CCN(CC)CCCC(C)Nc1ccnc2cc(Cl)ccc12` (stereo not drawn) [Chloroquine, chloroquine, reference compound] came in with an IC50 of 0.2 to 0.4 µM.

Still in this assay, the particulars now being: Plasmodium falciparum, read-out: WR, IC50 (μM), Table IV, formula VI.
As for `CCN(CC)CCCC(C)Nc1ccnc2cc(Cl)ccc12` (stereo not drawn) [Chloroquine, chloroquine, reference compound], the IC50 is 0.23 µM.

The assay is the same for the next values; noted with them: Plasmodium falciparum; similar tests.
With `CCN(CC)CCCC(C)Nc1ccnc2cc(Cl)ccc12` (stereo not drawn) [Chloroquine, chloroquine, reference compound], the IC50 is 0.2 to 0.4 µM.

The same assay, now with this note: Plasmodium falciparum; similar tests; read-out: IC50.
Take `COc1ccc(C(=O)/C=C/c2cccnc2)c(OC)c1` [Compound 44]: the IC50 came to 3.1 µM.
Still for that read-out and setting: with `Cn1cc(/C=C/C(=O)c2ccc(-n3ccnc3)cc2)c2ccccc21` [Compound 56] the figure was 20 µM.

Staying with this assay, now noted: Table I, formula III; W2 clone (CDC/Indochina III); * run: chloroquine 0.23 μM; † run: chloroquine 0.2-0.4 μM.
`CCN(CC)CCCC(C)Nc1ccnc2cc(Cl)ccc12` (stereo not drawn) [Chloroquine, chloroquine, reference compound]: half-maximal inhibition (IC50) required 0.2 µM.

The assay is the same for the next values; noted with them: Table I, formula III; W2 clone (CDC/Indochina III); * run: chloroquine 0.23 μM; † run: chloroquine 0.2-0.4 μM; read-out: IC50.
Regarding `COc1ccc(C(=O)/C=C/c2cccc(Cl)c2Cl)cc1OC` [Compound 2], the IC50 was found to be 0.39 µM.
For `COc1ccc(C(=O)/C=C/c2ccc(Cl)cc2Cl)c(OC)c1` [Compound 3], the IC50 amounted to 0.42 µM.
Still for that read-out and setting: with `COc1ccc(C(=O)/C=C/c2ccc(F)c(F)c2)c(OC)c1` [Compound 4] the figure was 0.47 µM; with `COc1ccc(C(=O)/C=C/c2ccc(Cl)cc2)c(OC)c1` [Compound 5], 0.63 µM.
Regarding `COc1ccc(C(=O)/C=C/c2cccc(Cl)c2)c(OC)c1` [Compound 6], the IC50 came to 0.74 µM.
On the same count and under the same terms, with `COc1ccc(C(=O)/C=C/c2ccc(F)cc2F)c(OC)c1` [Compound 7] the figure was 0.77 µM.
For the molecule `O=C(/C=C/c1cc(Cl)cc(Cl)c1)c1ccc(Cl)cc1Cl` [Compound 8], the IC50 is 0.9 µM.
As for `COc1ccc(C(=O)/C=C/c2ccccc2OC)c(OC)c1` [Compound 9], the IC50 was 0.96 µM.
Regarding `COc1ccc(C(=O)/C=C/c2cc(F)ccc2F)c(OC)c1` [Compound 10], the IC50 was determined as 1.3 µM.
Turning to `COc1ccc(C(=O)/C=C/c2ccc(N(C)C)cc2)c(OC)c1` [Compound 11], the IC50 was determined as 1.4 µM.
With `COc1ccc(/C=C/C(=O)c2cc(Cl)ccc2Cl)c(OC)c1` [Compound 12], the IC50 is 1.9 µM.
Turning to `COc1ccc(C(=O)/C=C/c2c(F)cccc2F)cc1OC` [Compound 13], the IC50 stood at 2 µM.
The same measure, in the same setting: in the case of `COc1ccc(C(=O)/C=C/c2c(Cl)cccc2Cl)c(OC)c1` [Compound 14] it was 2.4 µM.
The same measure, in the same setting: with `COc1ccc(/C=C/C(=O)c2ccc(Cl)c(Cl)c2)c(OC)c1` [Compound 16] the figure was 3.2 µM; with `COc1ccc(/C=C/C(=O)c2ccc(OC)cc2OC)c(OC)c1` [Compound 17], 3.6 µM.
`O=C(/C=C/c1ccc(Cl)cc1)c1ccc(Cl)cc1Cl` [Compound 18]: the IC50 was 3.6 µM.
As to `O=C(/C=C/c1ccccc1)c1ccc(O)cc1O` [Compound 19], the IC50 was determined as 3.6 µM.
Turning to `COc1ccc(/C=C/C(=O)c2ccc(Cl)cc2Cl)c(OC)c1` [Compound 20], the IC50 was 3.8 µM.
`O=C(/C=C/c1ccccc1O)c1ccc(O)cc1O` [Compound 21]: the IC50 is 3.9 µM.
Take `COc1ccc(C(=O)/C=C/c2c(OC)cccc2OC)cc1OC` [Compound 22]: the IC50 amounted to 4.2 µM.
`COc1ccc(C(=O)/C=C/c2ccccc2Cl)c(OC)c1` [Compound 23]: the IC50 turned out to be 5.8 µM.
Consider `COc1ccc(C(=O)/C=C/c2ccc([N+](=O)[O-])cc2)cc1OC` [Compound 24], for which the IC50 came out at 5.9 µM.
In the case of `COc1ccccc1/C=C/C(=O)c1ccccc1O` [Compound 25], the IC50 amounted to 6.9 µM.
For the molecule `O=C(/C=C/c1ccc(O)cc1)c1ccc(O)cc1O` [Compound 26], the IC50 came out at 7.4 µM.
Still for that read-out and setting: in the case of `COc1ccc(C(=O)/C=C/c2c(Cl)cccc2Cl)cc1OC` [Compound 27] it was 7.9 µM; in that of `COc1ccc(C(=O)/C=C/c2c(F)cccc2F)c(OC)c1` [Compound 28], 8.1 µM; in that of `COc1ccc(C(=O)/C=C/c2c(OC)cccc2OC)c(OC)c1` [Compound 29], 8.6 µM.
For `COc1ccc(C(=O)/C=C/c2cc(Cl)cc(Cl)c2)cc1OC` [Compound 30], the IC50 turned out to be 8.8 µM.
Still for that read-out and setting: with `O=C(/C=C/c1ccccc1)c1ccc(O)c(O)c1O` [Compound 31] the figure was 10.1 µM; with `COc1ccc(/C=C/C(=O)c2ccc(F)cc2F)c(OC)c1` [Compound 32], 11.1 µM.
Take `O=C(/C=C/c1ccc(Cl)cc1Cl)c1ccc(Cl)c(Cl)c1` [Compound 33]: the IC50 is 14.6 µM.
Same read-out and setting: with `O=C(/C=C/c1ccccc1O)c1ccccc1O` [Compound 34] the figure was 14.7 µM.
Consider `COc1ccc(C(=O)/C=C/c2ccc(F)c(F)c2)cc1OC` [Compound 35], for which the IC50 turned out to be 16.1 µM.
On the same count and under the same terms, with `COc1ccc(/C=C/C(=O)c2ccccc2O)cc1OC` [Compound 36] the figure was 16.4 µM.
Same read-out and setting: in the case of `COc1ccc(C(=O)/C=C/c2ccc(Cl)cc2)cc1OC` [Compound 37] it was 16.6 µM; in that of `COc1ccc(C(=O)/C=C/c2ccc(Cl)cc2Cl)cc1OC` [Compound 38], 19.5 µM; in that of `O=C(/C=C/c1ccc(O)cc1)c1ccccc1O` [Compound 39], 23 µM.
In the case of `O=C(/C=C/c1ccc(Cl)cc1)c1ccc(Cl)c(Cl)c1` [Compound 40], the IC50 came out at 31.7 µM.
The same measure, in the same setting: with `O=C(/C=C/c1cccc(O)c1)c1ccccc1O` [Compound 41] the figure was 77 µM; with `COc1ccc(C(=O)/C=C/c2ccc(F)cc2F)cc1OC` [Compound 42], 109 µM.
On to `COc1ccc(C(=O)/C=C/c2cc(Cl)cc(Cl)c2)c(OC)c1` [Compound 43], for which the IC50 is > 148 µM.

Staying with this assay, now noted: Table II, formula IV; * run: chloroquine 0.2-0.4 μM.
With `CCN(CC)CCCC(C)Nc1ccnc2cc(Cl)ccc12` (stereo not drawn) [Chloroquine, chloroquine, reference compound], half-maximal inhibition (IC50) required 0.2 µM.

Still in this assay, the particulars now being: Table III, formula V; read-out: IC50.
`O=C(/C=C/c1ccc(Cl)cc1Cl)c1ccc(-n2ccnc2)cc1` [Compound 49]: the IC50 is 0.72 µM.
On the same count and under the same terms, with `O=C(/C=C/c1cc(Cl)cc(Cl)c1)c1ccc(-n2ccnc2)cc1` [Compound 50] the figure was 0.91 µM; with `O=C(/C=C/c1cccc(Cl)c1Cl)c1ccc(-n2ccnc2)cc1` [Compound 51], 1.8 µM.
In the case of `O=C(/C=C/c1c(Cl)cccc1Cl)c1ccc(-n2ccnc2)cc1` [Compound 52], the IC50 came to 1.9 µM.
On to `O=C(/C=C/c1ccc(F)cc1F)c1ccc(-n2ccnc2)cc1` [Compound 53], for which the IC50 turned out to be 3.2 µM.
On the same count and under the same terms, in the case of `O=C(/C=C/c1c(F)cccc1F)c1ccc(-n2ccnc2)cc1` [Compound 54] it was 7.8 µM.
Consider `CN(C)c1ccc(/C=C/C(=O)c2ccc(-n3ccnc3)cc2)cc1` [Compound 55], for which the IC50 is 18 µM.

The assay is the same for the next values; noted with them: read-out: IC50.
As for `COc1ccc(/C=C/C(=O)c2ccccn2)c(OC)c1` [Compound 45], the IC50 worked out at 4.6 µM.
With `COc1ccc(/C=C/C(=O)c2cccnc2)c(OC)c1` [Compound 46], the IC50 worked out at 7.2 µM.
The same measure, in the same setting: with `O=C(/C=C/c1ccc(Cl)c([N+](=O)[O-])c1)c1ccccn1` [Compound 47] the figure was 8.2 µM; with `O=C(C=Cc1ccccc1)n1ccnc1` [Compound 48, cinnamoylimidazole, reference compound], > 253 µM.

The assay is the same for the next values; noted with them: similar tests; read-out: IC50.
With `COc1ccc(C(=O)/C=C/c2cccc(Cl)c2Cl)c(OC)c1` [Compound 1], the IC50 came to 0.38 µM.
On to `COc1ccc(C(=O)/C=C/c2cccc(F)c2F)c(OC)c1` [Compound 15], for which the IC50 was 2.8 µM.
